{"source": "paper PMC10455244", "about": "“Alpha-Mangostin: A Potent Inhibitor of TRPV3 and Pro-Inflammatory Cytokine Secretion in Keratinocytes” (International Journal of Molecular Sciences, 2023)", "target": "T1, TRPV3 (Homo sapiens, UniProt Q8NET8)", "T1 sequence (Q8NET8 1-790)": "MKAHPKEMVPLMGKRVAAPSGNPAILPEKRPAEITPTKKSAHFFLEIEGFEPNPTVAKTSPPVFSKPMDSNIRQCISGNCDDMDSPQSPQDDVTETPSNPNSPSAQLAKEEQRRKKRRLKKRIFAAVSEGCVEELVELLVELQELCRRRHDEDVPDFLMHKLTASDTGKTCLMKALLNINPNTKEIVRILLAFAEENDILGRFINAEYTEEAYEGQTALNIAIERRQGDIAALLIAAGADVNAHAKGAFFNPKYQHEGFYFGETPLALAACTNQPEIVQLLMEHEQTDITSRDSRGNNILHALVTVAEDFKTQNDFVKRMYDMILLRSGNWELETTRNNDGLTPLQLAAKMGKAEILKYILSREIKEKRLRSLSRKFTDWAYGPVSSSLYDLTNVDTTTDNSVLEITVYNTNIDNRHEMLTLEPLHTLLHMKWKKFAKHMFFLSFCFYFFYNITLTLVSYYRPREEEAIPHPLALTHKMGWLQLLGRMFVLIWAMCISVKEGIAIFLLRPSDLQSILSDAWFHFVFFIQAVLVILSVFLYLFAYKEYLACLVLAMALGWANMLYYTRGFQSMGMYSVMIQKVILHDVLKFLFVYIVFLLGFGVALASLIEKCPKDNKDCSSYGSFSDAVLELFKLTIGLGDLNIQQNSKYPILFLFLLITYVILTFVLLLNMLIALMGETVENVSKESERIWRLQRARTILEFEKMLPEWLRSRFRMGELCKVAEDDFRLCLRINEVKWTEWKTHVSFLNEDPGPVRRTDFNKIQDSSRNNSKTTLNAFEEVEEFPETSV", "test": "Whole-cell patch-clamp, 2-APB-evoked TRPV3 current in hTRPV3-overexpressing HEK 293T cells", "type": "cell-based", "design": "expressed in transfected cells", "text": "First, we used a conventional whole-cell patch-clamp to record the TRPV3 current in HEK 293T cells overexpressing hTRPV3. Then, different concentrations of alpha-mangostin were perfused into the cells to determine the effects of alpha-mangostin on the TRPV3 current. Alpha-mangostin inhibited 2-APB-evoked TRPV3 current, as shown in a representative cell in Figure 1A.\nFigure 1 Alpha-mangostin (α-MG) inhibited the TRPV3 current. […] (A) Alpha-mangostin inhibited 2-APB-evoked current in a representative TRPV3 overexpressing HEK 293T cell. The channel was activated using 100 µM 2-APB and subsequently perfused with solutions containing different concentrations of alpha-mangostin with 100 µM 2-APB. A solution containing 10 µM ruthenium red (RR, a TRP channel inhibitor) and 100 µM 2-APB was perfused at the end. […] Currents were normalized to the maximum response to 2-APB at −100 mV. (C) Alpha-mangostin inhibited carvacrol-evoked current in a representative TRPV3-overexpressing HEK 293T cell. TRPV3 was activated using 1000 µM carvacrol and subsequently perfused with solutions containing different concentrations of alpha-mangostin with 1000 µM carvacrol. A solution containing 10 µM RR and 1000 µM carvacrol was perfused at the end. (D) Summary of normalized currents evoked by carvacrol with or without alpha-mangostin at −100 mV. Currents were normalized to the maximum response carvacrol at −100 mV. (E) Alpha-mangostin inhibited 2-APB-evoked current in NHEK. The channel was activated using 100 µM 2-APB and subsequently perfused with solutions containing different concentrations of alpha-mangostin with 100 µM 2-APB. A solution containing 10 µM 74a (a TRPV3 inhibitor) and 100 µM 2-APB was perfused at the end. […] The right panel summarizes normalized currents evoked by 2-APB with or without alpha-mangostin at −100 mV. Currents were normalized to the maximum response to 2-APB at −100 mV. Data are presented as means ± SEM. ** p < 0.01, *** p < 0.001, **** p < 0.0001.\nHEK 293T cells were purchased from the American Type Culture Collection (Cat. No. CRL-3216, ATCC, Manassas, VA, USA). TRPV3-overexpressing HEK 293T cells were supplied by Prof. Wan Lee (Dongguk University College of Medicine, Gyeongju, South Korea). HEK 293T cells expressing TRPV3 mutants (G573S, G573C), TRPV4, TRPA1 were made by transient transfection. These cells were cultured in Dulbecco’s modified Eagle’s medium (DMEM, Welgene, Daegu, Korea) containing 10% fetal bovine serum (FBS; Welgene) and 1% penicillin/streptomycin (P/S; Life Technologies, Carlsbad, CA, USA). […]\n[…] Sampling at 10 kHz and low-pass filtering at 5 kHz (w-c) were applied for all recorded currents. Recorded data were analyzed using Clampfit ver. […]", "data": [{"compound": "COc1c(O)cc2oc3cc(O)c(CC=C(C)C)c(O)c3c(=O)c2c1CC=C(C)C", "note": "[Alpha-mangostin]", "values": [{"measurement": "Inhibition of 2-APB-evoked TRPV3 currents", "setting": "10 µM, 100 µM 2-APB, −100 mV, similar level to 10 µM ruthenium red", "result": "almost completely inhibited"}, {"measurement": "inhibition at 0.3 µM", "setting": "HEK-293T, 0.3 µM, −100 mV, read-out: Inhibition percentage of TRPV3 current", "result": 76.6, "unit": "%"}, {"measurement": "IC50", "setting": "hTRPV3-overexpressing HEK 293T, 100 µM 2-APB, at −100 mV, read-out: IC50, inhibition of 2-APB-induced TRPV3 current", "result": "77 ± 13", "unit": "nM"}, {"measurement": "Reversibility of inhibitory effect on TRPV3 current", "setting": "wash out, 100 µM 2-APB, −60 mV holding potential", "result": "partly reversible"}]}]}
